Test results published in ChEMBL document CHEMBL1140428, “Human P2Y(6) receptor: molecular modeling leads to the rational design of a novel agonist based on a unique conformational preference” (J Med Chem, 2005).
pEC50: −log10 of the molar value.

Biological target: P2Y purinoceptor 6 (Homo sapiens, UniProt Q15077)
Experiment: Stimulation of phospholipase C in 1321N1 astrocytoma cells transfected with human P2Y6 receptor
Assay type: cell-based
Settings: for pEC50: read-out: EC50; call rule not given here

Chain of P2Y purinoceptor 6 (Q15077 whole entry): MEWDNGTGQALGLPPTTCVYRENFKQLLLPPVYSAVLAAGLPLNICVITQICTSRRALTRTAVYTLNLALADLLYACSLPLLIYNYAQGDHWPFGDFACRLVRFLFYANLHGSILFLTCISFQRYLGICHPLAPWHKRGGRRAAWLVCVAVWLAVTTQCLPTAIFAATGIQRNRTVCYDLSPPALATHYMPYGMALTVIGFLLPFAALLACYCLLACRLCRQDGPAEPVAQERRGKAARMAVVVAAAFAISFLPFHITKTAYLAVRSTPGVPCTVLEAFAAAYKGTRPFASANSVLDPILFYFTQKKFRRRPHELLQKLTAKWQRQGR

Row | SMILES | pEC50 | EC50
1 | O=c1ccn([C@@]23C[C@H](O)[C@@H](COP(=O)(O)OP(=O)(O)O)[C@@H]2C3)c(=O)[nH]1 | 6.64 | 
2 | O=c1ccn([C@@H]2O[C@H](COP(=O)(O)OP(=O)(O)O)[C@@H](O)[C@H]2O)c(=O)[nH]1 [URIDINE_DIPHOSPHATE] | 7.07 | 
3 | O=c1ccn([C@H]2C[C@H](O)[C@@H](COP(=O)(O)OP(=O)(O)O)O2)c(=O)[nH]1 | 5.76 | 
4 | O=c1ccn([C@H]2[C@H](O)[C@H](O)[C@@]3(COP(=O)(O)OP(=O)(O)O)C[C@H]23)c(=O)[nH]1 |  | Not Active
